{"source": "patent US7732609B2", "about": "“5-(arylsulfonyl)-pyrazolopiperidines” (Elan Pharmaceuticals, Inc., priority 2005, dated 2010)", "data": [{"molecular_target": "T1, gamma-secretase (Homo sapiens, UniProt P49768)", "T1 construct": "The assay used a partially purified extract of IMR-32 cell membranes as the gamma-secretase enzyme preparation; endogenous in cells; host or cells: IMR-32 cell membranes (partially purified extract)", "experiment": "Gamma-secretase APP enzyme assay (MBP-C125 Swe cleavage at Aβ40 site, sandwich ELISA)", "assay_type": "biochemical", "details": "IMR-32 cell membrane extract as enzyme; MBP-C125swe substrate; 2 h at 37° C; read-out: γAPP", "text": "The gamma-secretase APP enzyme assay was designed to measure the specific proteolytic cleavage of an APP substrate (MBP-C125 Swe fusion protein) at the Aβ40 site. The assay used a partially purified extract of IMR-32 cell membranes as the gamma-secretase enzyme preparation and a recombinant fusion protein containing the C-terminal 125 amino acids of the Swedish variant of the APP (MBP-C125swe) as the substrate. This assay involved two steps beginning with the enzymatic reaction generating a cleavage product that was captured with an immobilized antibody specific for the neo-epitope Aβ40 site. The captured cleavage product was then detected in a sandwich ELISA assay with a biotinylated reporter antibody that is specific to Aβ (17-28). Streptavidin-linked alkaline phosphatase was then added that would generate a fluorescent signal proportional to the amount of cleavage product. This assay was used to discover small molecule inhibitors of gamma-secretase.\nBriefly, a 149 mg/ml solution of BIGCHAP detergent was made with water at 42° C. and then rotated for 30 minutes at the same temperature. This warmed solution of BigCHAPS(N,N-Bis(3-D-gluconamidopropyl)cholamide) detergent was used to dissolve Brain Extract Type-V (lipid containing a minimum of 40% phosphatidylethanolamine) from Sigma (St. Louis, Mo.) to a concentration of 8 mg/ml. This solution containing BigCHAPS and lipid at 8 mg/ml is then diluted to 0.53 mg/ml lipid with a pre-warmed solution of Hepes and sodium chloride. This final solution containing Hepes buffer, sodium chloride, BigCHAPS detergent and lipid is used to create working solutions of both gamma-secretase (25 Units) and the MBP-C125 substrate (0.05 mg/ml).\nGamma-secretase was then added to a 96-well micro-titre plate and then incubated with various concentrations of inhibitor for 30 minutes at 37° C. MBPC125 substrate was then added to initiate the reaction that would run for two hours at 37° C. The reaction was quenched with the addition of SDS to a final concentration of 0.1% and then 100 μl of the reaction mixture was transferred to a capture ELISA plate and incubated overnight at 4° C. Detection of the cleavage product was performed using a standard sandwich ELISA assay and quantified using a six point standard curve.", "units": {"IC50": "µM"}, "values": [{"compound": "O=S(=O)(c1ccc(Cl)cc1)N1Cc2c[nH]nc2CC1c1cncnc1", "note": "(single isomer, unassigned) [5-(4-chlorophenylsulfonyl)-6-(pyrimidin-5-yl)-4,5,6,7-tetrahydro-1H-pyrazolo[4,3-c]pyridine]", "IC50": "< 0.05"}, {"compound": "CC[C@@H]1C(=O)c2[nH]ncc2[C@H](CC)N1S(=O)(=O)c1ccc(Cl)cc1", "note": "[(4S,6R)-5-(4-chlorophenylsulfonyl)-4,6-diethyl-5,6-dihydro-1H-pyrazolo[4,3-c]pyridin-7(4H)-one]", "IC50": "0.15 to 0.3"}, {"compound": "(4S,6R)-diethyl 5-(4-chlorophenylsulfonyl)-4,5,6,7-tetrahydro-1H-pyrazolo[4,3-c]pyridine-4,6-dicarboxylate", "IC50": "0.05 to 0.15"}, {"compound": "CC[C@@H]1Cc2[nH]ncc2[C@@H](COC(=O)N(C)C)N1S(=O)(=O)c1ccc(Cl)cc1", "note": "[((4S,6R)-5-(4-chlorophenylsulfonyl)-6-ethyl-4,5,6,7-tetrahydro-1H-pyrazolo[4,3-c]pyridin-4-yl)methyl dimethylcarbamate]", "IC50": "0.15 to 0.3"}, {"compound": "O=S(=O)(c1ccc(Cl)cc1)N1Cc2cn[nH]c2CC1c1ccncc1", "note": "(stereo not shown) [5-(4-chlorophenylsulfonyl)-6-(pyridin-4-yl)-4,5,6,7-tetrahydro-1H-pyrazolo[4,3-c]pyridine]", "IC50": "0.15 to 0.3"}, {"compound": "CC[C@H]1Cc2n[nH]cc2[C@@H](c2ccc(Cl)cc2)N1S(=O)(=O)c1ccc(Cl)cc1", "note": "[(4R,6S)-4-(4-chlorophenyl)-5-(4-chlorophenylsulfonyl)-6-ethyl-4,5,6,7-tetrahydro-1H-pyrazolo[4,3-c]pyridine]", "IC50": "< 0.05"}, {"compound": "CC[C@H]1Cc2n[nH]cc2[C@@H](CC)N1S(=O)(=O)c1ccc(F)cc1", "note": "[(4R,6S)-4,6-diethyl-5-(4-fluorophenylsulfonyl)-4,5,6,7-tetrahydro-2H-pyrazolo[4,3-c]pyridine]", "IC50": "< 0.05"}, {"compound": "O=S(=O)(c1ccc(Cl)cc1)N1CCc2ncccc2C1c1ccc(Cl)cc1", "note": "(stereo not shown) [5-(4-chlorophenyl)-6-(4-chlorophenylsulfonyl)-5,6,7,8-tetrahydro-1,6-naphthyridine]", "IC50": "< 0.05"}, {"compound": "O=S(=O)(c1ccc(Cl)cc1)N1Cc2c[nH]nc2CC1c1nccs1", "note": "(stereo not shown) [2-(5-(4-chlorophenylsulfonyl)-4,5,6,7-tetrahydro-2H-pyrazolo[4,3-c]pyridin-6-yl)thiazole]", "IC50": "0.15 to 0.3"}, {"compound": "CC[C@@H]1c2cn[nH]c2C[C@@H](COC(=O)N(C)C)N1S(=O)(=O)c1ccc(Cl)cc1", "note": "[((4R,6S)-5-(4-chlorophenylsulfonyl)-4-ethyl-4,5,6,7-tetrahydro-1H-pyrazolo[4,3-c]pyridin-6-yl)methyl dimethylcarbamate]", "IC50": "0.15 to 0.3"}, {"compound": "O=S(=O)(c1ccc(Cl)cc1)N1Cc2cn[nH]c2CC1CO", "note": "(stereo not shown) [(5-(4-chlorophenylsulfonyl)-4,5,6,7-tetrahydro-1H-pyrazolo[4,3-c]pyridin-6-yl)methanol]", "IC50": "0.15 to 0.3"}, {"compound": "CCOC(=O)C1c2cn[nH]c2CC(CC)N1S(=O)(=O)c1ccc(Cl)cc1", "note": "(stereo not shown) [ethyl 5-(4-chlorophenylsulfonyl)-6-ethyl-4,5,6,7-tetrahydro-1H-pyrazolo[4,3-c]pyridine-4-carboxylate]", "IC50": "< 0.05"}, {"compound": "CC[C@H]1Cc2[nH]ncc2[C@@H](COC(=O)N(C)C)N1S(=O)(=O)c1ccc(Cl)cc1", "note": "[((4S,6S)-5-(4-chlorophenylsulfonyl)-6-ethyl-4,5,6,7-tetrahydro-1H-pyrazolo[4,3-c]pyridin-4-yl)methyl dimethylcarbamate]", "IC50": "0.15 to 0.3"}, {"compound": "CC[C@@H]1c2cn[nH]c2C(=O)[C@H](CC)N1S(=O)(=O)c1ccc(Cl)cc1", "note": "[(4R,6S)-5-(4-chlorophenylsulfonyl)-4,6-diethyl-5,6-dihydro-1H-pyrazolo[4,3-c]pyridin-7(4H)-one]", "IC50": "< 0.05"}, {"compound": "O=S(=O)(c1ccc(Cl)cc1)N1[C@@H](CO)Cc2[nH]ncc2[C@H]1CO", "note": "[((4S,6R)-5-(4-chlorophenylsulfonyl)-4,5,6,7-tetrahydro-1H-pyrazolo[4,3-c]pyridine-4,6-diyl)dimethanol]", "IC50": "0.15 to 0.3"}, {"compound": "O=S(=O)(c1ccc(Cl)cc1)N1Cc2cn[nH]c2CC1c1cccnc1", "note": "(stereo not shown) [5-(4-chlorophenylsulfonyl)-6-(pyridin-3-yl)-4,5,6,7-tetrahydro-1H-pyrazolo[4,3-c]pyridine]", "IC50": "0.05 to 0.15"}, {"compound": "O=S(=O)(c1ccc(Cl)cc1)N1Cc2cn[nH]c2CC1c1cccc(F)c1", "note": "(stereo not shown) [5-(4-chlorophenylsulfonyl)-6-(3-fluorophenyl)-4,5,6,7-tetrahydro-1H-pyrazolo[4,3-c]pyridine]", "IC50": "< 0.05"}, {"compound": "O=S(=O)(c1ccc(Cl)cc1)N1CCc2[nH]ncc2C1c1nc2ccccc2[nH]1", "note": "(stereo not shown) [4-(1H-Benzoimidazol-2-yl)-5-(4-chloro-benzenesulfonyl)-4,5,6,7-tetrahydro-1H-pyrazolo[4,3-c]pyridine]", "IC50": "0.15 to 0.3"}, {"compound": "CC[C@H]1Cc2[nH]ncc2[C@@H](CC)N1S(=O)(=O)c1ccccn1", "note": "[(4R,6S)-4,6-diethyl-5-(pyridin-2-ylsulfonyl)-4,5,6,7-tetrahydro-1H-pyrazolo[4,3-c]pyridine]", "IC50": "0.05 to 0.15"}, {"compound": "O=S(=O)(c1ccc(Cl)cc1)N1Cc2c[nH]nc2CC1c1cc(F)cc(F)c1", "note": "(stereo not shown) [5-(4-chlorophenylsulfonyl)-6-(3,5-difluorophenyl)-4,5,6,7-tetrahydro-1H-pyrazolo[4,3-c]pyridine]", "IC50": "< 0.05"}, {"compound": "CC(C)C1Cc2n[nH]cc2CN1S(=O)(=O)c1ccc(Cl)cc1", "note": "(stereo not shown) [5-(4-chlorophenylsulfonyl)-6-isopropyl-4,5,6,7-tetrahydro-1H-pyrazolo[4,3-c]pyridine]", "IC50": "< 0.05"}, {"compound": "CC[C@@H]1c2c[nH]nc2C[C@H](c2ccc(Cl)cc2)N1S(=O)(=O)c1ccc(Cl)cc1", "note": "[(4R,6R)-6-(4-chlorophenyl)-5-(4-chlorophenylsulfonyl)-4-ethyl-4,5,6,7-tetrahydro-1H-pyrazolo[4,3-c]pyridine]", "IC50": "< 0.05"}, {"compound": "O=S(=O)(c1ccc(Cl)cc1)N1CCc2n[nH]cc2C1c1nccs1", "note": "(stereo not shown) [2-(5-(4-chlorophenylsulfonyl)-4,5,6,7-tetrahydro-2H-pyrazolo[4,3-c]pyridin-4-yl)thiazole]", "IC50": "< 0.05"}, {"compound": "O=S(=O)(c1ccc(Cl)cc1)N1Cc2c[nH]nc2CC1Cc1ccccc1", "note": "(stereo not shown) [6-benzyl-5-(4-chlorophenylsulfonyl)-4,5,6,7-tetrahydro-1H-pyrazolo[4,3-c]pyridine]", "IC50": "0.05 to 0.15"}, {"compound": "CN(C)C(=O)OC[C@@H]1c2cn[nH]c2CCN1S(=O)(=O)c1ccc(Cl)cc1", "note": "[(S)-(5-(4-chlorophenylsulfonyl)-4,5,6,7-tetrahydro-1H-pyrazolo[4,3-c]pyridin-4-yl)methyl dimethylcarbamate]", "IC50": "0.15 to 0.3"}, {"compound": "O=S(=O)(c1ccc(Cl)cc1)N1Cc2cccnc2CC1c1ccc(Cl)cc1", "note": "(stereo not shown) [7-(4-chlorophenyl)-6-(4-chlorophenylsulfonyl)-5,6,7,8-tetrahydro-1,6-naphthyridine]", "IC50": "0.15 to 0.3"}, {"compound": "C[C@@H]1c2cn[nH]c2C[C@H](C)N1S(=O)(=O)c1ccc(Cl)cc1", "note": "[(4R,6S)-5-(4-chlorophenylsulfonyl)-4,6-dimethyl-4,5,6,7-tetrahydro-1H-pyrazolo[4,3-c]pyridine]", "IC50": "< 0.05"}, {"compound": "CC[C@H]1c2cn[nH]c2C[C@@H](COC(=O)N(C)C)N1S(=O)(=O)c1ccc(Cl)cc1", "note": "[((4S,6S)-5-(4-chlorophenylsulfonyl)-4-ethyl-4,5,6,7-tetrahydro-1H-pyrazolo[4,3-c]pyridin-6-yl)methyl dimethylcarbamate]", "IC50": "< 0.05"}, {"compound": "CC[C@H]1Cc2n[nH]cc2[C@@H](CC)N1S(=O)(=O)c1ccc(Cl)cc1", "note": "[(4R,6S)-5-(4-chlorophenylsulfonyl)-4,6-diethyl-4,5,6,7-tetrahydro-1H-pyrazolo[4,3-c]pyridine]", "IC50": "< 0.05"}, {"compound": "O=S(=O)(c1ccc(Cl)cc1)N1Cc2cn[nH]c2CC1c1ccc(F)cc1", "note": "(stereo not shown) [5-(4-chlorophenylsulfonyl)-6-(4-fluorophenyl)-4,5,6,7-tetrahydro-1H-pyrazolo[4,3-c]pyridine]", "IC50": "< 0.05"}, {"compound": "CCC1c2cn[nH]c2CC(CO)N1S(=O)(=O)c1ccc(Cl)cc1", "note": "(stereo not shown) [5-(4-chlorophenylsulfonyl)-4-ethyl-4,5,6,7-tetrahydro-1H-pyrazolo[4,3-c]pyridin-6-yl)methanol]", "IC50": "< 0.05"}, {"compound": "O=S(=O)(c1ccc(Cl)s1)N1Cc2cn[nH]c2CC1c1ccccc1", "note": "(stereo not shown) [5-(5-chlorothiophen-2-ylsulfonyl)-6-phenyl-4,5,6,7-tetrahydro-1H-pyrazolo[4,3-c]pyridine]", "IC50": "< 0.05"}, {"compound": "CC[C@@H]1c2cn[nH]c2/C(=N\\O)[C@H](CC)N1S(=O)(=O)c1ccc(Cl)cc1", "note": "[(4R,6S,Z)-5-(4-chlorophenylsulfonyl)-4,6-diethyl-5,6-dihydro-1H-pyrazolo[4,3-c]pyridin-7(4H)-one oxime]", "IC50": "0.05 to 0.15"}, {"compound": "O=S(=O)(c1ccc(Cl)cc1)N1Cc2c(C(F)(F)F)n[nH]c2CC1c1ccc(Cl)cc1", "note": "(stereo not shown) [6-(4-chlorophenyl)-5-(4-chlorophenylsulfonyl)-3-(trifluoromethyl)-4,5,6,7-tetrahydro-1H-pyrazolo[4,3-c]pyridine]", "IC50": "0.15 to 0.3"}]}]}
